From PMC7470104, “Discovery of 3,6-disubstituted pyridazines as a novel class of anticancer agents targeting cyclin-dependent kinase 2: synthesis, biological evaluation and in silico insights” (Journal of Enzyme Inhibition and Medicinal Chemistry, 2020)
Like-named read-outs stand apart in the source and are kept apart here.

What was measured:
[1] = test system: T-47D cells; experiment: SRB anti-proliferative assay, T-47D; format: cell-based; details: Homo sapiens, T47D, 48 h, read-out: IC50 T-47D
Description: (§1) MDA-MB-231 cell line is classified as a triple-negative/basal-like cell line, which is hormone (estrogen and progesterone)-receptor negative and HER2 negative, whereas T-47D is considered as hormone-receptor positive and HER2 negative breast cancer cell line.
(§2) 2. Anti-proliferative activities
(§3) The three examined human cancer cell lines; T-47D (breast cancer), MDA-MB-231 (breast carcinoma) and SKOV-3 (ovarian cancer), as well as the non-tumorigenic human breast cell line (MCF-10A) have been obtained from American Type Culture Collection (ATCC). The cells were maintained in Dulbecco's modified Eagle's medium (DMEM) supplemented with 10% heat inactivated fetal calf serum (GIBCO), penicillin (100 U/ml) and streptomycin (100 µg/ml) at 37 °C in humidified atmosphere containing 5% CO2. Cells at a concentration of 0.50 x 106 were grown in a 25 cm2 flask in 5 ml of culture medium.
(§4) The anti-proliferative activity of the tested pyridazines 11a-r was measured in vitro using the Sulfo-Rhodamine-B stain (SRB) assay. Briefly, Cells were inoculated in 96-well microtiter plate (5X104 cells/ well) for 24 h before treatment with the tested pyridazines to allow attachment of cell to the wall of the plate. Tested pyridazines were dissolved in DMSO at 1 mg/ml immediately before use and diluted to the appropriate volume just before addition to the cell culture. Different concentrations of tested pyridazines and staurosporine were added to the cells (three wells were prepared for each individual dose). Cells were incubated with the pyridazines for 48 h at 37°C and in atmosphere of 5% CO2. After 48 h cells were fixed, washed, and stained for 30 min with 0.4% (w/v) SRB dissolved in 1% acetic acid. Unbound dye was removed by four washes with 1% acetic acid, and attached stain was recovered with Tris-EDTA buffer. Color intensity was measured in an ELISA reader. The relation between percent of surviving fraction and drug concentration is plotted to get the survival curve for each cell line. The concentration required for 50% inhibition of cell viability (IC50) was calculated. […]

[2] = test system: MDA-MB-231 cells; experiment: SRB anti-proliferative assay, MDA-MB-231; format: cell-based; details: Homo sapiens, read-out: IC50 MDA-MB-231
Description: as §1, §2, §3, §4

[3] = molecular target: CDK2/CyclinA2 (Homo sapiens, UniProt P24941); experiment: In vitro CDK2 kinase assay (CDK2/CyclinA2 Kinase Enzyme System)
Description: CDK Kinase Inhibitory Activity

[4] = test system: T-47D cells; experiment: Cell cycle analysis by flow cytometry, T-47D; format: cell-based, human; details: treated at IC50, 24 h, vs untreated control
Description: (§5) In this study, the efficient anti-proliferative activities of target pyridazines 11a-r towards breast cancer cell lines promoted us to explore and get insights into the plausible cellular mechanisms for these small molecules. To this end, we decided to determine if the target pyridazines exerted their cytotoxic activity through alteration in cell cycle progression and/or induction of apoptosis in both breast cancer T-47D and MDA-MB-231 cells. As a reliable tool, the flow cytometric analysis was utilised to inspect the cell cycle distribution after treatment of T-47D and MDA-MB-231 cells with IC50s of pyridazines 11l and 11m; […]
as §2
The three examined human cancer cell lines; T-47D (breast cancer), MDA-MB-231 (breast carcinoma) and SKOV-3 (ovarian cancer), as well as the non-tumorigenic human breast cell line (MCF-10A) have been obtained from American Type Culture Collection (ATCC). The cells were maintained in Dulbecco's modified Eagle's medium (DMEM) supplemented with 10% heat inactivated fetal calf serum (GIBCO), penicillin (100 U/ml) and streptomycin (100 µg/ml) at 37 °C in humidified atmosphere containing 5% CO2. Cells at a concentration of 0.50 x 106 were grown in a 25 cm2 flask in 5 ml of culture medium. […]
Tested pyridazines were dissolved in […]
The relation between percent of surviving fraction and drug concentration is plotted to get the survival curve for each cell line. The concentration required for 50% inhibition of cell viability (IC50) was calculated.
Breast cancer T-47D and MDA-MB-231 cells were treated with pyridazines 11l and 11m for 24 h (at their IC50 concentration), and then cells were washed twice with ice-cold phosphate buffered saline (PBS). Subsequently, the treated cells were collected by centrifugation, fixed in ice-cold 70% (v/v) ethanol, washed with PBS, re-suspended with 100 μg/mL RNase, stained with 40 μg/mL PI, and analyzed by flow cytometry using FACS Calibur (Becton Dickinson, BD, Franklin Lakes, NJ, USA). The cell cycle distributions were calculated using CellQuest software 5.1 (Becton Dickinson).

[5] = test system: T-47D cells; experiment: Annexin V-FITC/PI apoptosis assay, T-47D; format: cell-based, human; details: treated at IC50, 48 h; for Annexin V+ cells, late apoptotic phase (upper right quadrant): control 0.19%; for Annexin V+ cells, early apoptotic phase (lower right quadrant): control […]
Procedure: (§6) Both T-47D and MDA-MB-231 cells were treated with pyridazines 11l and 11m at their IC50s for 48 h. The obtained results have been depicted in Figures 4–6.
(§7) 4. Annexin V-FITC Apoptosis Assay
(§8) Phosphatidylserine externalization was assayed using Annexin V-FITC/PI apoptosis detection kit (BD Biosciences, USA) according to the manufacturer’s instructions. Breast cancer T-47D and MDA-MB-231 cells were cultured to a monolayer then treated with pyridazines 11l and 11m at their IC50 concentration. Briefly, cells were then harvested via trypsinization, and rinsed twice in PBS followed by binding buffer. Moreover, cells were re-suspended in 100 μL of binding buffer with the addition of 1 μL of FITC-Annexin V followed by an incubation period of 30 min at 4 °C. Cells were then rinsed in binding buffer and resuspended in 150 μL of binding buffer with the addition of 1 μL of DAPI (1 μg/μL in PBS). Cells were then analyzed using the flow cytometer BD FACS Canto II and the results were interpreted with FlowJo7.6.4 software (Tree Star, Ashland, OR, USA). […]
(§9) Data are presented as means ± S.D. Individual groups were compared using the two-tailed independent Student’s t-test. Multiple group comparisons were carried out using one-way analysis of variance (ANOVA) followed by the Tukey–Kramer test for post-hoc analysis. Statistical significance was accepted at a level of p < 0.05. All statistical analyses were performed using GraphPad InStat software, version 3.05 (GraphPad Software, Inc., La Jolla, CA, USA). Graphs were sketched using GraphPad Prism software, version 5.00 (GraphPad Software, Inc., La Jolla, CA, USA).

[6] = test system: MDA-MB-231 cells; experiment: Annexin V-FITC/PI apoptosis assay, MDA-MB-231; format: cell-based, human; details: MDA-MB-231, treated at IC50, 48 h; for Annexin V+ cells, late apoptotic phase (upper right quadrant): control 0.24%; for Annexin V+ cells, early apoptotic phase (lower right quadrant): control 0.56%
Procedure: as §6, §7, §8, §9

[7] = test system: MDA-MB-231 cells; experiment: Cell cycle analysis by flow cytometry, MDA-MB-231; format: cell-based, human; details: MDA-MB-231, treated at IC50, 24 h, vs untreated control
Description: as §5, §2, §3
The anti-proliferative activity of the tested pyridazines 11a-r was measured in vitro using the Sulfo-Rhodamine-B stain (SRB) assay. Briefly, Cells were inoculated in 96-well microtiter plate (5X104 cells/ well) for 24 h before treatment with the tested pyridazines to allow attachment of cell to the wall of the plate. Tested pyridazines were dissolved in DMSO at 1 mg/ml immediately before use and diluted to the appropriate volume just before addition to the cell culture. Different concentrations of tested pyridazines and staurosporine were added to the cells (three wells were prepared for each individual dose). Cells were incubated with the pyridazines for 48 h at 37°C and in atmosphere of 5% CO2. After 48 h cells were fixed, washed, and stained for 30 min with 0.4% (w/v) SRB dissolved in 1% acetic acid. Unbound dye was removed by four washes with 1% acetic acid, and attached stain was recovered with Tris-EDTA buffer. Color intensity was measured in an ELISA reader. The relation between percent of surviving fraction and drug concentration is plotted to get the survival curve for each cell line. The concentration required for 50% inhibition of cell viability (IC50) was calculated.
Breast cancer T-47D and MDA-MB-231 cells were treated with pyridazines 11l and 11m for 24 h (at their IC50 concentration), and then cells were washed twice with ice-cold phosphate buffered saline (PBS). […]

[8] = test system: MCF-10A cells; experiment: MTT cytotoxicity towards non-tumorigenic breast cells; format: cell-based, human; details: for IC50: read-out: IC50 MCF-10A
[9] = test system: human colon cancer HT-29 cell line; design: method as in PMID 23307426; details: in words; cited from earlier work
[10] = test system: VEGFR-2; design: method as in PMID 31852269; details: in words; cited from earlier work
[11] = SRB assay, breast cancer T-47D, mean ± SD of three experiments
[12] = SRB assay, 48 h, breast cancer MDA-MB-231, mean ± SD of three experiments

CCCCNc1nnc(C(=O)NC2C3CC4CC(C3)CC2C4)cc1C(F)(F)F (stereo not shown) [11b]
IC50 [1, 11]: 1370 ± 40 nM | melting point: 110 to 111 °C

O=C(NC1C2CC3CC(C2)CC1C3)c1cc(C(F)(F)F)c(N2CCOCC2)nn1 (stereo not shown) [11d]
melting point: 177 to 178 °C | IC50 [2, 12]: 2180 ± 70 nM

O=C(NC1C2CC3CC(C2)CC1C3)c1cc(C(F)(F)F)c(NCc2ccccc2C(F)(F)F)nn1 (stereo not shown) [11e]
IC50 [3]: 151 ± 6.16 nM | IC50 [1, 11]: 2620 ± 80 nM

CC(C)(C)NC(=O)c1cc(C(F)(F)F)c(NC2CCCC2)nn1 [11f]
IC50 [1, 11]: 1940 ± 60 nM | melting point: 62 to 63 °C

CC(C)(C)NC(=O)c1cc(C(F)(F)F)c(N2CCOCC2)nn1 [11g]
melting point: 121 to 122 °C

CC(C)(C)NC(=O)c1cc(C(F)(F)F)c(NCc2ccccc2C(F)(F)F)nn1 [11h]
IC50 [3]: 43.8 ± 1.79 nM | IC50 [1, 11]: 1600 ± 50 nM | melting point: 132 to 133 °C | IC50 [2, 12]: 2440 ± 80 nM

CCCCNC(=O)c1cc(C(F)(F)F)c(N2CCOCC2)nn1 [11i]
IC50 [1, 11]: 440 ± 10 nM

O=C(NCC1CCOCC1)c1cc(C(F)(F)F)c(NCC2CC2)nn1 [11l]
IC50 [3]: 55.6 ± 2.27 nM | IC50 [1, 11]: 1570 ± 50 nM | Increase in sub-G1 phase [4]: 13.8 fold | Rise in cell population of G2/M phase [4]: 2.7 fold | Increase in Annexin V+ apoptotic cells (UR + LR) with respect to untreated control [5]: about 33 fold | Annexin V+ cells, late apoptotic phase (upper right quadrant) [5]: 27.2% | Annexin V+ cells, early apoptotic phase (lower right quadrant) [5]: 6.39% | IC50 [2, 12]: 1300 ± 40 nM | Annexin V+ cells, late apoptotic phase (upper right quadrant) [6]: 23.60% | Annexin V+ cells, early apoptotic phase (lower right quadrant) [6]: 3.38% | Increase in cell population of G2/M phase [7]: 4.1 fold | Increase in sub-G1 phase [7]: 18.9 fold | Mean tumour selectivity index (S. I.) ([8]; IC50 for MCF-10A / IC50 average for (T-47D and MDA-MB-231)): 13.7 | IC50 ([8]; MTT assay, non-tumorigenic human breast MCF-10A cells): 19600 ± 380 nM

O=C(NCC1CCOCC1)c1cc(C(F)(F)F)c(N2CCOCC2)nn1 [11m]
IC50 [1]: 430 ± 10 nM | Increase in sub-G1 phase [4]: 9.5 fold | Rise in cell population of G2/M phase [4]: 2.5 fold | Increase in Annexin V+ apoptotic cells (UR + LR) with respect to untreated control [5]: ~21 fold | Annexin V+ cells, late apoptotic phase (upper right quadrant) [5]: 10.34% | Annexin V+ cells, early apoptotic phase (lower right quadrant) [5]: 11.36% | IC50 ([2]; MDA-MB-231, 48 h): 990 ± 30 nM | Annexin V+ cells, late apoptotic phase (upper right quadrant) [6]: 15.56% | Annexin V+ cells, early apoptotic phase (lower right quadrant) [6]: 8.19% | Increase in cell population of G2/M phase [7]: 3.8 fold | Increase in sub-G1 phase [7]: 15.2 fold | IC50 ([8]; Homo sapiens, MCF-10A): 11400 ± 220 nM

O=C(NCc1ccccc1C(F)(F)F)c1cc(C(F)(F)F)c(NCCO)nn1 [11n]
IC50 [2, 12]: 2940 ± 90 nM

CCOC(=O)c1ccc(-c2ccc(N(C)C)nn2)cc1 [III]
Cytotoxic activity towards HT-29 [9]: excellent cytotoxic activity

COc1ccc(Nc2ccc(NC(=O)Nc3ccc(Cl)c(C(F)(F)F)c3)cc2)nn1 [IV]
IC50 VEGFR-2 [10]: nanomolar range
